According to ChEMBL document CHEMBL1201862, “PubChem BioAssay data set” (2004):
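Five compound concentrations were applied to cells in 96-well plates for 48 hours; endpoints were derived by simple linear interpolation of the resulting dose-response curve. The concentration for 50% growth inhibition is given as GI50.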 The source made the active and inactive calls. Rule as the data show it: active = GI50 up to about 1.1 µM and inactive = higher.

Experiments:
Experiment in all cases: NCI-60 cell line screen, 48 h
SR = tested on: SR
PC-3 = tested on: PC-3
SF-295 = tested on: SF-295
RXF 393 = tested on: RXF 393
UO-31 = tested on: UO-31
T47D = tested on: T47D
NCI-H460 = tested on: NCI-H460
UACC-257 = tested on: UACC-257
K562 = tested on: K562
MCF7 = tested on: MCF7
HT-29 = tested on: HT-29
SK-MEL-5 = tested on: SK-MEL-5
HCT-15 = tested on: HCT-15
786-0 = tested on: 786-0
M14 = tested on: M14
A549 = tested on: A549
RPMI-8226 = tested on: RPMI-8226
SF-539 = tested on: SF-539
SK-OV-3 = tested on: SK-OV-3

| Compound | GI50 (SR) | GI50 (PC-3) | GI50 (SF-295) | GI50 (RXF 393) | GI50 (UO-31) | GI50 (T47D) | GI50 (NCI-H460) | GI50 (UACC-257) | GI50 (K562) | GI50 (MCF7) | GI50 (HT-29) | GI50 (SK-MEL-5) | GI50 (HCT-15) | GI50 (786-0) | GI50 (M14) | GI50 (A549) | GI50 (RPMI-8226) | GI50 (SF-539) | GI50 (SK-OV-3) |
| --- | --- | --- | --- | --- | --- | --- | --- | --- | --- | --- | --- | --- | --- | --- | --- | --- | --- | --- | --- |
| CC(=O)Oc1c(-c2ccccc2)sc2ccccc12 | 10.1 µM (inactive) | 25.5 µM (inactive) | 18.6 µM (inactive) | 13.6 µM (inactive) | 16.8 µM (inactive) | 10.7 µM (inactive) | 14.5 µM (inactive) | 12.5 µM (inactive) | 13.9 µM (inactive) | 27.6 µM (inactive) | 20.3 µM (inactive) | 18.5 µM (inactive) | 16.6 µM | 15.6 µM (inactive) | > 10 µM (inactive) | 20.6 µM (inactive) | 1.61 µM (inactive) | 20.6 µM (inactive) | – |
| O=C(/C=N/O)Nc1cc(Cl)c(Cl)cc1Cl | – | 33.2 µM (inactive) | 27 µM (inactive) | 31.5 µM (inactive) | 41.9 µM (inactive) | 16.5 µM (inactive) | 28.4 µM (inactive) | 26.6 µM (inactive) | 25.6 µM (inactive) | 22.6 µM (inactive) | 36.8 µM (inactive) | 17.7 µM (inactive) | 31.4 µM | 37.4 µM (inactive) | 34.4 µM (inactive) | 34.5 µM (inactive) | 27.9 µM (inactive) | 31.6 µM (inactive) | 27.8 µM (inactive) |
| CCN1C(=O)C(=C/C=C/c2ccc([N+](=O)[O-])cc2)C(=O)N(CC)C1=S | – | 19.3 µM (inactive) | > 100 µM (inactive) | 17 µM (inactive) | 18.8 µM (inactive) | > 100 µM (inactive) | 61.8 µM (inactive) | 17.6 µM (inactive) | 20.1 µM (inactive) | 23.6 µM (inactive) | 19.7 µM (inactive) | 20.8 µM (inactive) | 29.5 µM | 18.6 µM (inactive) | 29 µM (inactive) | > 100 µM (inactive) | 30.8 µM (inactive) | 21.2 µM (inactive) | > 100 µM (inactive) |
| Cc1ccc(OCCn2cc(Nc3ccccc3)c(=O)[nH]c2=O)cc1 | > 100 µM (inactive) | > 100 µM (inactive) | > 100 µM (inactive) | > 100 µM (inactive) | > 100 µM (inactive) | > 100 µM (inactive) | > 100 µM (inactive) | > 100 µM (inactive) | > 100 µM (inactive) | > 100 µM (inactive) | 81.7 µM (inactive) | > 100 µM (inactive) | > 100 µM | > 100 µM (inactive) | > 100 µM (inactive) | > 100 µM (inactive) | > 100 µM (inactive) | > 100 µM (inactive) | – |
| COc1cc(C=C2C(=O)NC(=S)NC2=O)cc(OC)c1OC | – | > 100 µM (inactive) | > 100 µM (inactive) | > 100 µM (inactive) | > 100 µM (inactive) | > 100 µM (inactive) | > 100 µM (inactive) | > 100 µM (inactive) | > 100 µM (inactive) | > 100 µM (inactive) | > 100 µM (inactive) | > 100 µM (inactive) | > 100 µM | > 100 µM (inactive) | > 100 µM (inactive) | > 100 µM (inactive) | > 100 µM (inactive) | > 100 µM (inactive) | > 100 µM (inactive) |
| SC1=NC2(CCCCCC2)NN1c1ccccc1 | 28.8 µM (inactive) | 29.6 µM (inactive) | 0.0471 µM (active) | – | 0.168 µM (active) | 0.597 µM (active) | 0.979 µM (active) | 23.9 µM (inactive) | 0.019 µM (active) | 1.36 µM (inactive) | 1.35 µM (inactive) | 93.3 µM (inactive) | 0.168 µM | > 30.6 µM (inactive) | 1.61 µM (inactive) | 0.206 µM (active) | 0.769 µM (active) | – | > 100 µM (inactive) |
| CCCCc1ccc(N2C(=O)c3cc([N+](=O)[O-])cnc3S2(=O)=O)cc1 | 43.3 µM (inactive) | > 100 µM (inactive) | 47.2 µM (inactive) | – | > 100 µM (inactive) | > 100 µM (inactive) | > 100 µM (inactive) | > 100 µM (inactive) | > 100 µM (inactive) | 59.8 µM (inactive) | > 100 µM (inactive) | > 100 µM (inactive) | > 100 µM | > 100 µM (inactive) | > 100 µM (inactive) | > 100 µM (inactive) | > 100 µM (inactive) | > 100 µM (inactive) | > 100 µM (inactive) |
| O=C1C(Cl)=C(Cl)C(=O)C2=C1C1c3ccccc3C2c2ccccc21 | – | > 100 µM (inactive) | 41.5 µM (inactive) | 30.8 µM (inactive) | 47.6 µM (inactive) | 25.3 µM (inactive) | 32.5 µM (inactive) | > 100 µM (inactive) | 38.6 µM (inactive) | 71.4 µM (inactive) | > 100 µM (inactive) | > 100 µM (inactive) | 39.3 µM | 22.3 µM (inactive) | 62.7 µM (inactive) | 99.1 µM (inactive) | 25.6 µM (inactive) | 31.3 µM (inactive) | 94.4 µM (inactive) |
| O=S1(=O)Cc2ccc3c4c2-c2c(ccc5ccc(c-4c25)CS(=O)(=O)C3)C1 | 10.2 µM (inactive) | 93.1 µM (inactive) | > 100 µM (inactive) | – | 43.3 µM (inactive) | 55.3 µM (inactive) | 63.2 µM (inactive) | > 100 µM (inactive) | 26.7 µM (inactive) | 92.3 µM (inactive) | 57 µM (inactive) | – | 22.9 µM | 49.5 µM (inactive) | > 100 µM (inactive) | > 100 µM (inactive) | 20 µM (inactive) | 51.9 µM (inactive) | > 100 µM (inactive) |
| Cc1cc(O)c2c(c1)C(C1OC(CO)C(O)C(O)C1O)c1cc(O)cc(O)c1C2=O (configuration not stated) | > 100 µM (inactive) | > 100 µM (inactive) | > 100 µM (inactive) | – | > 100 µM (inactive) | > 100 µM (inactive) | > 100 µM (inactive) | > 100 µM (inactive) | > 100 µM (inactive) | > 100 µM (inactive) | > 100 µM (inactive) | > 100 µM (inactive) | > 100 µM | > 100 µM (inactive) | > 100 µM (inactive) | > 100 µM (inactive) | > 100 µM (inactive) | – | > 100 µM (inactive) |
| CCOC(=O)c1cn(CC)c2cc3c(cc2c1=O)CCS3(=O)=O | > 100 µM (inactive) | > 100 µM (inactive) | > 100 µM (inactive) | > 100 µM (inactive) | > 100 µM (inactive) | > 100 µM (inactive) | > 100 µM (inactive) | – | > 100 µM (inactive) | > 100 µM (inactive) | > 100 µM (inactive) | > 100 µM (inactive) | > 100 µM | > 100 µM (inactive) | > 100 µM (inactive) | > 100 µM (inactive) | – | > 100 µM (inactive) | > 100 µM (inactive) |
| O=S(=O)(c1cc(Cl)ccc1Cl)N1CCN(c2cccc(Cl)c2)CC1 | > 100 µM (inactive) | > 100 µM (inactive) | > 100 µM (inactive) | > 100 µM (inactive) | > 100 µM (inactive) | > 100 µM (inactive) | > 100 µM (inactive) | > 100 µM (inactive) | 67 µM (inactive) | > 100 µM (inactive) | 58.7 µM (inactive) | 52.6 µM (inactive) | > 100 µM | > 100 µM (inactive) | > 10 µM (inactive) | > 100 µM (inactive) | > 100 µM (inactive) | > 100 µM (inactive) | – |
| CN(C)CCOc1ccc([N+](=O)[O-])c2cccnc12 | > 100 µM (inactive) | > 100 µM (inactive) | > 100 µM (inactive) | – | > 100 µM (inactive) | > 100 µM (inactive) | > 100 µM (inactive) | 86.9 µM (inactive) | 97.3 µM (inactive) | > 100 µM (inactive) | 39.4 µM (inactive) | > 100 µM (inactive) | > 100 µM | > 100 µM (inactive) | > 100 µM (inactive) | > 100 µM (inactive) | – | > 100 µM (inactive) | > 100 µM (inactive) |
| CCOC(=O)c1c(CN2CCNCC2)nc2ccccc2c1-c1ccccc1 | – | 13.4 µM (inactive) | 15.1 µM (inactive) | 2.92 µM (inactive) | 7.28 µM (inactive) | 13.9 µM (inactive) | 14.3 µM (inactive) | 4.07 µM (inactive) | 12.6 µM (inactive) | 14.3 µM (inactive) | 5.41 µM (inactive) | 13.6 µM (inactive) | 16.1 µM | 12.7 µM (inactive) | 13.4 µM (inactive) | 16.7 µM (inactive) | 14.4 µM (inactive) | 16.8 µM (inactive) | 16.5 µM (inactive) |
| COC(=O)[C@]12CSC[C@H]1C[C@H](c1cccc3ccccc13)N2 | 37.8 µM (inactive) | > 100 µM (inactive) | > 100 µM (inactive) | – | > 100 µM (inactive) | > 100 µM (inactive) | 44.3 µM (inactive) | > 100 µM (inactive) | 35.1 µM (inactive) | 57.7 µM (inactive) | – | > 100 µM (inactive) | > 100 µM | > 100 µM (inactive) | > 100 µM (inactive) | 93.3 µM (inactive) | 61.8 µM (inactive) | > 100 µM (inactive) | > 100 µM (inactive) |
| CC1=CC(C)C/C=C/C2C3OC3(C)C(C)C3C(Cc4c[nH]c5ccccc45)NC(=O)C23C(=O)C=CC(=O)C1O (configuration not stated) | – | 11.6 µM (inactive) | 11.9 µM (inactive) | 1.38 µM (inactive) | 1.96 µM (inactive) | 1.65 µM (inactive) | 12.8 µM (inactive) | 6.27 µM (inactive) | 3.06 µM (inactive) | 5.78 µM (inactive) | 1.42 µM (inactive) | 10.7 µM (inactive) | 2.26 µM | 3.25 µM (inactive) | 3.57 µM (inactive) | 8.3 µM (inactive) | 0.272 µM (active) | 6.97 µM (inactive) | 12.4 µM (inactive) |
